# Key:
# Assay in all cases: In vitro cell growth inhibition assay (MTT)
# Format in all cases: cell-based, human
# A2780 = A2780 human ovarian cancer cell line, 48 h, MTT; read-out: IC50 A2780
# Method: (§1) 5000 tumor cells per well were seeded into 96-well plate and allowed to adhere overnight. Cells were treated with various concentrations of tested compounds or DMSO (0.2%, as negative control) for 48 h. Then, the medium along with tested compounds or DMSO was discarded and […] per well MTT containing medium (0.5 mg/mL) was added. After incubation at 37° C. for 4 h, the MTT-containing medium was replaced by DMSO (150 μL per well) to dissolve the formazan crystals. Absorbance of the resulting solution was measured by microplate reader (Biotech ELx800) at 540 nm wavelength. Growth inhibition rates were calculated with the absorbance. Half maximal inhibitory concentration (IC50) of each compound was calculated using GraphPad Prism, version 6.0.
# MDA-MB-231 = MDA-MB-231 human breast cancer cell line, 48 h, MTT; read-out: IC50 MDA-MB-231
# Method: as §1
# Hela = Hela human cervical cancer cell line, 48 h, MTT; read-out: IC50 Hela
# Method: as §1
# SKOV3 = settings: SK-OV-3; SKOV-3 human ovarian cancer cell line, 48 h, MTT; read-out: IC50 SKOV3
# Method: as §1
Compound,IC50 (A2780) [nM],IC50 (MDA-MB-231) [nM],IC50 (Hela) [nM],IC50 (SKOV3) [nM]
"C=C1C(=O)N(c2cc(OC)c(OC)c(OC)c2)[C@H]1c1ccc(OC)c(OCCO)c1 [Compound 8, (S)-4-(3-(2-hydroxyethoxy)-4-methoxyphenyl)-3-methylene-1-(3,4,5-trimethoxyphenyl)azetidin-2-one]",344,845,925,832
"C=C1C(=O)N(c2cc(OC)c(OC)c(OC)c2)[C@H]1c1ccc(OC)c(OCCCO)c1 [Compound 9, (S)-4-(3-(3-hydroxypropoxy)-4-methoxyphenyl)-3-methylene-1-(3,4,5-trimethoxyphenyl)azetidin-2-one]",1540,1920,7470,3030
"C/C=C1\C(=O)N(c2cc(OC)c(OC)c(OC)c2)[C@H]1c1ccc(OC)c(O)c1 [Compound 55, (S,Z)-3-ethylidene-4-(3-hydroxy-4-methoxyphenyl)-1-(3,4,5-trimethoxyphenyl)azetidin-2-one]",,,2640,2760
"C/C=C1/C(=O)N(c2cc(OC)c(OC)c(OC)c2)[C@H]1c1ccc(OC)c(O)c1 [Compound 56, (S,E)-3-ethylidene-4-(3-hydroxy-4-methoxyphenyl)-1-(3,4,5-trimethoxyphenyl)azetidin-2-one]",,,2920,2830
"COc1ccc([C@H]2[C@@H](Cc3ccc(O)cc3)C(=O)N2c2cc(OC)c(OC)c(OC)c2)cc1O [Compound 60, (3R,4R)-4-(3-hydroxy-4-methoxyphenyl)-3-(4-hydroxybenzyl)-1-(3,4,5-trimethoxyphenyl)azetidin-2-one]",,,7260,2850
"COc1ccc([C@H]2[C@@H](CO)C(=O)N2c2cc(OC)c(OC)c(OC)c2)cc1O [Compound 68, (3S,4R)-4-(3-hydroxy-4-methoxyphenyl)-3-(hydroxymethyl)-1-(3,4,5-trimethoxyphenyl)azetidin-2-one]",220,182,358,
"COc1ccc([C@H]2[C@@H](O)C(=O)N2c2cc(OC)c(OC)c(OC)c2)cc1OCc1ccccc1 [Compound 72, (3R,4S)-4-(3-(benzyloxy)-4-methoxyphenyl)-3-hydroxy-1-(3,4,5-trimethoxyphenyl)azetidin-2-one]",,,> 10000,> 10000
"COc1ccc([C@H]2[C@@H](OS(C)(=O)=O)C(=O)N2c2cc(OC)c(OC)c(OC)c2)cc1OCc1ccccc1 [Compound 73, (3R,4S)-2-(3-(benzyloxy)-4-methoxyphenyl)-4-oxo-1-(3,4,5-trimethoxyphenyl)azetidin-3-yl methanesulfonate]",,,> 10000,> 10000
"COc1ccc([C@H]2[C@@H](OS(C)(=O)=O)C(=O)N2c2cc(OC)c(OC)c(OC)c2)cc1O [Compound 74, (3R,4S)-2-(3-(hydroxy)-4-methoxyphenyl)-4-oxo-1-(3,4,5-trimethoxyphenyl)azetidin-3-yl methanesulfonate]",,,754,980
"COc1ccc([C@H]2[C@H](N=[N+]=[N-])C(=O)N2c2cc(OC)c(OC)c(OC)c2)cc1OCc1ccccc1 [Compound 75, (3S,4S)-3-azido-4-(3-(benzyloxy)-4-methoxyphenyl)-1-(3,4,5-trimethoxyphenyl)azetidin-2-one]",,,> 10000,> 10000
"COc1ccc([C@H]2[C@H](N)C(=O)N2c2cc(OC)c(OC)c(OC)c2)cc1OCc1ccccc1 [Compound 76, (3S,4S)-3-amino-4-(3-(benzyloxy)-4-methoxyphenyl)-1-(3,4,5-trimethoxyphenyl)azetidin-2-one]",,,7460,8540
"COc1ccc([C@@H]2N(c3cc(OC)c(OC)c(OC)c3)C(=O)[C@]2(O)CO)cc1OC(C)=O [Compound 82, 5-((2S,3R)-3-hydroxy-3-(hydroxymethyl)-4-oxo-1-(3,4,5-trimethoxyphenyl)azetidin-2-yl)-2-methoxyphenyl acetate]",,,863,625
"COc1ccc([C@@H]2N(c3cc(OC)c(OC)c(OC)c3)C(=O)[C@@]2(COC(C)=O)OC(C)=O)cc1OC(C)=O [Compound 83, ((2S,3R)-3-acetoxy-2-(3-acetoxy-4-methoxyphenyl)-4-oxo-1-(3,4,5-trimethoxyphenyl)azetidin-3-yl)methyl acetate]",,,> 10000,> 10000
"COc1ccc([C@@H]2N(c3cc(OC)c(OC)c(OC)c3)C(=O)[C@]2(O)CO)cc1OCc1ccccc1 [Compound 84, (3R,4S)-4-(3-(benzyloxy)-4-methoxyphenyl)-3-hydroxy-3-(hydroxymethyl)-1-(3,4,5-trimethoxyphenyl)azetidin-2-one]",,,> 10000,2320
"C=CC(=O)OC[C@@]1(OC(=O)C=C)C(=O)N(c2cc(OC)c(OC)c(OC)c2)[C@H]1c1ccc(OC)c(OC(=O)C=C)c1 [Compound 89, ((2S,3R)-3-(acryloyloxy)-2-(3-(acryloyloxy)-4-methoxyphenyl)-4-oxo-1-(3,4,5-trimethoxyphenyl)azetidin-3-yl)methyl acrylate]",,,2450,2230
"C=CC(=O)N[C@@H]1C(=O)N(c2cc(OC)c(OC)c(OC)c2)[C@H]1c1ccc(OC)c(OC(=O)C=C)c1 [Compound 90, 5-((2S,3S)-3-acrylamido-4-oxo-1-(3,4,5-trimethoxyphenyl)azetidin-2-yl)-2-methoxyphenyl acrylate]",,,25,16
"C=C1CN(c2cc(OC)c(OC)c(OC)c2)[C@H]1c1ccc(OC)c(O)c1 [Compound 91, (S)-2-methoxy-5-(3-methylene-1-(3,4,5-trimethoxyphenyl)azetidin-2-yl)phenol]",,,252,246
"COc1ccc([C@@H]2N(c3cc(OC)c(OC)c(OC)c3)C(=O)[C@]23COC(=O)O3)cc1OC(C)=O [Compound 92, 5-((1S,4R)-3,6-dioxo-2-(3,4,5-trimethoxyphenyl)-5,7-dioxa-2-azaspiro[3.4]octan-1-yl)-2-methoxyphenyl acetate]",,,1570,1280
"COc1ccc([C@H]2C(=O)C(=O)N2c2cc(OC)c(OC)c(OC)c2)cc1OC(C)=O [Compound 93, (S)-5-(3,4-dioxo-1-(3,4,5-trimethoxyphenyl)azetidin-2-yl)-2-methoxyphenyl acetate]",,,> 10000,> 10000
"COc1ccc([C@@H]2N(c3cc(OC)c(OC)c(OC)c3)C(=O)[C@]2(C)O)cc1OC(C)=O [Compound 94, 5-((2S,3R)-3-hydroxy-3-methyl-4-oxo-1-(3,4,5-trimethoxyphenyl)azetidin-2-yl)-2-methoxyphenyl acetate]",,,94,147
"COc1ccc([C@@H]2N(c3cc(OC)c(OC)c(OC)c3)C(=O)[C@]2(C)O)cc1O [Compound 95, (3R,4S)-3-hydroxy-4-(3-hydroxy-4-methoxyphenyl)-3-methyl-1-(3,4,5-trimethoxyphenyl)azetidin-2-one]",,,213,103
"COc1ccc([C@@H]2[C@@H](CO)C(=O)N2c2cc(OC)c(OC)c(OC)c2)cc1O [Compound 99, (3S,4S)-4-(3-hydroxy-4-methoxyphenyl)-3-(hydroxymethyl)-1-(3,4,5-trimethoxyphenyl)azetidin-2-one]",> 20000,> 20000,> 20000,
"COc1ccc([C@@H]2[C@H](CO)C(=O)N2c2cc(OC)c(OC)c(OC)c2)cc1O [Compound 100, (3R,4S)-4-(3-hydroxy-4-methoxyphenyl)-3-(hydroxymethyl)-1-(3,4,5-trimethoxyphenyl)azetidin-2-one]",364,383,332,
